Values quoted from earlier work, collected in patent US20140017187A1, “Use of 5-(7-methoxy-3,3-dimethyl-2,3-dihydro-1-benzoxepin-5-yl)-3-methyl-penta-2,4-dienoic acid as a cosmetic” (Merck Patent GmbH, priority 2008, published 2014).

Target: T1, PPAR-alpha (Homo sapiens, UniProt Q07869)
T1 sequence (Q07869 1-468): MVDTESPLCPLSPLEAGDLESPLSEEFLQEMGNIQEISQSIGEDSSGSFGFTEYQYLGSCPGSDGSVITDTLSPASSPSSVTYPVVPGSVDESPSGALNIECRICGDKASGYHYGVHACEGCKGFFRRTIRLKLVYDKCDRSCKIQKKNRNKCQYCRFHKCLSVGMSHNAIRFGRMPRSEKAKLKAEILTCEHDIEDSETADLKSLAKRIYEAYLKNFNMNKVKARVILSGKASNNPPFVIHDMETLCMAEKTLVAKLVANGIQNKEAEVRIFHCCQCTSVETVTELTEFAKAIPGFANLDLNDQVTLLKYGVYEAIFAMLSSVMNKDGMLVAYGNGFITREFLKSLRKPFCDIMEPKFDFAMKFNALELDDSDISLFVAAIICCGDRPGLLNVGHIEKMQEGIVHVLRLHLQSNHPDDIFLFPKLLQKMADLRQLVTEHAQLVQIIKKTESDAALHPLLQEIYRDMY
Conditions: personal communication Johann Wiechers; cited from earlier work

For Octadecenedioic acid [O.D.A. White], which PPAR-alpha activation is on record?
The PPAR-alpha activation was “negligible”.
